Measured values from US10555919B2, “Melatonin in autoimmune disease” (The Brigham and Women's Hopsital, Inc., priority 2014, dated 2020).
“Also recorded” adds a separate entry of the source.

How the values were obtained:
human Th1 cells = test: In vitro human Th1 differentiation; assay type: cell-based; settings: 500 ng/ml; IL-12
Method: In vitro human T cell differentiation. For Th17 differentiation, naive CD45RA+ CD4+ T cells were isolated from PBMCs with magnetic beads (Naive Human CD4+ T Cell Isolation Kit II, Miltenyi Biotec) and seeded at a density of 5×10^5 cells/ml in 24-well plates coated with anti-CD3 and (2 μg/ml) and soluble anti-CD28 and cultured in the presence of the following cytokines IL-1β (25 ng/ml), IL-6 (50 ng/ml), and TGF-β1 (2 ng/ml) and neutralizing antibodies to IFN-g ([…]) and IL-4 (10 microgram/ml). Alternatively, Th17 cells were differentiated by using IL-1β (25 ng/ml), IL-6 (50 ng/ml), and IL-23 (50 ng/ml) and neutralizing antibodies to IFN-g ([…]) and IL-4 (10 microgram/ml). For Th1 differentiation naïve CD4+T cells are cultured in the presence of IL-12 (20 ng/ml) and anti-IL-4 (10 μg/ml).

[1] = system: murine Th17 cell differentiation; test: In vitro mouse Th17 cell differentiation; assay type: cell-based; settings: melatonin 2 ng/ml
Method: For intracellular cytokine staining, cells were stimulated for 4 h at 37° C. with phorbol 12-myristate 13-acetate (50 ng/ml; Sigma), ionomycin (1 μg/ml; Sigma) and monensin (GolgiStop; 1 μg/ml; BD Biosciences). After being stained for surface markers, cells were fixed and made permeable according to the manufacturer's instructions (BD Biosciences). All antibodies against cytokines were from Biolegend. All experiments were started at the same time (8-9 am). Data were collected with a LSR II or FACSAria (BD Biosciences), then were analyzed with FlowJo software (Treestar).
Naive CD4+ T cells (CD4+CD44loCD62LhiCD25−) were from the spleen and lymph node of C57BL/6 wild-type, MTNR1A−, NFIL3−, REV-ERBα, C/EBPα-deficient or RORα-deficient mice using magnetic beads (CD4+ T cell isolation kit, Miltenyi Biotec). All experiments were started between 7 and 9 am. Cells were activated with plate-bound anti-CD3 (2 μg/ml; 14-0031-86; eBioscience) and anti-CD28 (2 μg/ml; 16-0281-86; eBioscience). Mouse IL-27 (30 ng/ml; 34-8271; Biolegend) was added for the generation of Tr1 cells. IL-6 (30 ng/ml; 406-ML-025; R&D Systems), TGF-β1 (15 ng/ml; 130-095-067; Miltenyi Biotec), anti-IL-4 (2.5 μg/ml; C17.8; Biolegend) and anti-IFN-γ (5 μg/ml; XMG1.2; Biolegend) were added for the generation of Th17 cells. Recombinant mouse IL-23 (30 ng/ml; 1887-ML-010; R&D Systems) was added at day 2. For some experiments IL-6 and […] (10 ng/ml; 401-ML-025; R&D Systems) or TGF-β1 and IL-21 (100 ng/ml; 594-ML-010; R&D Systems) were used in instead for Th17 cell differentiation. IL-12 (30 ng/ml; 419-ML-010; R&D Systems) and anti-IL-4 (2.5 μg/ml; C17.8; Biolegend) were used for the generation of Th1 cells. IL-4 (30 ng/ml; 404-ML-010; R&D Systems) and anti-IFN-γ (5 μg/ml; XMG1.2; Biolegend) was added for the generation of Th2 cells. TGF-β1 (15 ng/ml; 130-095-067; Miltenyi Biotec) was used for the generation of Foxp3+ Tregs. Melatonin (Gador, Argentina), Agomelatin, and CGP-52608 (Sigma-Aldrich) were added at the start of the cultures and at day 2, at a final concentration of 2-20 ng/ml.
Secreted cytokines were measured in tissue culture supernatants after 72-96 hs by enzyme-linked immunosorbent assay as previously described (Farez et al., 2009).

CD4+ T cells = test: Th17 differentiation in vivo in RAG-1 deficient mice reconstituted with CD4+ T cells and immunized with MOG35-55 in CFA; settings: melatonin 5 mg/kg
Excerpt: Sorted splenic CD4+ T cells from C57BL/6, MTNR1A-, REV-ERBα and NFIL3-deficient mice were transferred i.p. (10×10^6 cells per mouse) into RAG-1 deficient mice. Ten days after transfer, mice were checked for reconstitution of CD4+ T cells and immunized with MOG35-55 in CFA. Twenty days after immunization, T cells were isolated and stained for cytokines.

ROR-α = test: Chromatin immunoprecipitation with anti-ROR-α at the il10 promoter; assay type: cell-based, mouse; settings: T-cell activation under Tr1 polarizing conditions in the presence of melatonin
Method: DNA-protein complexes in cells were crosslinked with 4% paraformaldehyde and lysed with 0.35 ml lysis buffer (1% SDS, 10 mM EDTA and 50 mM Tris-HCl, pH 8.1) containing 1×protease inhibitor ‘cocktail’ (Roche Molecular Biochemicals). Chromatin was sheared by sonication and supernatants collected after centrifugation were diluted in buffer (1% Triton X-100, 2 mM EDTA, 150 mM NaCl and 20 mM Tris-HCl, pH 8.1). 5 μg antibody was prebound for a minimum of 6 hs to protein A and protein G Dynal magnetic beads (Invitrogen) and samples were washed three times with ice-cold PBS containing 5% BSA, and then were added to the diluted chromatin, followed by immunoprecipitation overnight. The magnetic bead-chromatin complexes were then washed three times in radioimmunoprecipitation buffer (50 mM HEPES, pH 7.6, 1 mM EDTA, 0.7% Na deoxycholate, 1% NP-40 and 0.5 M LiCl), followed by two washes with Tris-EDTA buffer. Immunoprecipitated chromatin was then extracted with a solution of 1% SDS and 0.1 MNaHCO3 and was heated at 65° C. for at least 6 h for reversal of the paraformaldehyde cross-linking. DNA fragments were purified with a QIAquick DNA purification Kit (Qiagen) and were analyzed by SYBR Green real-time PCR (Takara Bio).

[2] = during Th17 cell differentiation, 3 days

## COc1ccc2[nH]cc(CCNC(C)=O)c2c1 [Melatonin, N-Acetyl-5-methoxytryptamine]
Human Th1 cells
  differentiation of human Th1 cells: no effect
[1]; MTNR1A KO
  differentiation of MTNR1A-deficient (MTNR1A KO) Th17 cells: failed to suppress; also recorded: boosted
[1]; Th17 polarizing conditions
  expression of both ROR-α and ROR-γt: reduced
[1]; Th17 polarizing conditions, 72 hs
  expression of IL-10: increased
[1]; [2]
  expression of the ROR-γt repressor NFIL3: increase
  nr1d1 expression: suppressed
[1]; wild type, agomelatine 20 ng/ml, ramelteon 10 ng/ml, CGP 52608 20 ng/ml
  differentiation of Th17 cells (rorc, IL-17, IL-23 receptor): interfered
CD4+ T cells; mice reconstituted with MTNR1A-, REV-ERBα or NFIL3-deficient T cells
  Th17 cell differentiation in vivo: increased
CD4+ T cells; mice reconstituted with wild type CD4+ T cells
  Th17 cell differentiation in vivo: suppression
ROR-α
  binding of ROR-α to the il10 promoter: increased
